Test results as given in patent US9926340B2, “NAD analogs and methods of using said NAD analogs in determining ribosylation of proteins with PARP mutants” (The Board of Regents of the University of Texas System, priority 2015, dated 2018).
“Also recorded” adds a separate entry of the source.

Experiments:
Assay in all cases: Automodification reaction, ADP-ribose Western blot / in-gel fluorescence after click to azido-rhodamine
Type in all cases: biochemical
Conditions in all cases: FIG. 5I
[1] = target: T1, asPARP-1 (PARP-1 L877A) (Mus musculus, UniProt P11103, L876A)
T1 construct: relative to un-shifted full length PARP-1 measured by densitometry of anti-PARP-1 western blots; made in house; host or cells: Sf9 insect cells (baculovirus)
Procedure: (§1) In vitro automodification reactions. 200 ng PARP Protein was incubated in Automodification Buffer (30 mM HEPES, pH 8.0, 5 mM MgCl2, 5 mM CaCl2, 0.01% NP-40, 1 mM DTT, 100 ng/mL sonicated salmon sperm DNA (Stratagene), 100 ng/mL BSA (SIGMA)) with NAD^+ or NAD^+ analogs as indicated at 25° C. for 5 (PARP-1 and PARP2) or 30 minutes (PARP3) for Sf9-purified proteins and for 45 minutes for bacterially purified enzymes.
(§2) Reactions were stopped by addition of ⅓ reaction volume with 4×SDS-PAGE Loading Buffer (200 mM Tris, pH 6.8, 8% SDS, 40% Glycerol, 4% β-mercaptoethanol, 50 mM EDTA, 0.08% Bromophenol Blue) followed by boiling at 100° C. for 5 minutes. Reaction products in 1×SDS-PAGE buffer were then resolved on a 10% SDS-PAGE gel, transferred to a nitrocellulose membrane and blotted with a polyclonal antibody against PARP-1 or with an antibody-like detection reagent against ADP-ribose (MABE1016, Millipore). Relative quantitation of PARP-1 automodifications was performed by the ratio of PARylation-induced […] in SDS-PAGE mobility relative to un-shifted full length PARP-1 measured by densitometry of anti-PARP-1 western blots.
(§3) Reactions were stopped by methanol:chloroform precipitation (Wessel and Flugge, 1984). The protein pellets were clicked to azido-Rhodamine (Click Chemistry Tools) in Denaturing CC Buffer (100 mM HEPES, pH 8, 4 M Urea, 0.5 M NaCl, 2% CHAPS, 10 μM azido-Rhodamine, 1 mM THPTA (Click Chemistry Tools), 5 mM CuSO4, 5 mM Sodium Ascorbate) with Azido-Rhodamine, THPTA:CuSO4 complex, and Sodium Ascorbate each added sequentially in written order. […]
(§4) The automodification reactions were stopped by the addition of one third of a reaction volume of 4×SDS-PAGE Loading Buffer (200 mM Tris.HCl, pH 6.8, 8% SDS, 40% glycerol, 4% 3-mercaptoethanol, 50 mM EDTA, 0.08% bromophenol blue) followed by heating to 100° C. for 5 min. […] Relative quantification of PARP-1 automodification was performed using densitometry and was expressed as the ratio of the PARylation-induced decrease in PARP-1 mobility relative to non-shifted PARP-1. […]

[2] = target: T2, asPARP-2 (L443A) (Homo sapiens, UniProt Q9UGN5, L443A)
T2 construct: made in house; host or cells: Sf9 insect cells (baculovirus)
Procedure: as §1, §2, §3, §4

[3] = target: T3, asPARP-3 (L394A) (Mus musculus, UniProt Q3ULW8, L399A)
T3 construct: made in house; host or cells: Sf9 insect cells (baculovirus)
T3 sequence (Q3ULW8 1-528 isoform Q3ULW8-2 L394A): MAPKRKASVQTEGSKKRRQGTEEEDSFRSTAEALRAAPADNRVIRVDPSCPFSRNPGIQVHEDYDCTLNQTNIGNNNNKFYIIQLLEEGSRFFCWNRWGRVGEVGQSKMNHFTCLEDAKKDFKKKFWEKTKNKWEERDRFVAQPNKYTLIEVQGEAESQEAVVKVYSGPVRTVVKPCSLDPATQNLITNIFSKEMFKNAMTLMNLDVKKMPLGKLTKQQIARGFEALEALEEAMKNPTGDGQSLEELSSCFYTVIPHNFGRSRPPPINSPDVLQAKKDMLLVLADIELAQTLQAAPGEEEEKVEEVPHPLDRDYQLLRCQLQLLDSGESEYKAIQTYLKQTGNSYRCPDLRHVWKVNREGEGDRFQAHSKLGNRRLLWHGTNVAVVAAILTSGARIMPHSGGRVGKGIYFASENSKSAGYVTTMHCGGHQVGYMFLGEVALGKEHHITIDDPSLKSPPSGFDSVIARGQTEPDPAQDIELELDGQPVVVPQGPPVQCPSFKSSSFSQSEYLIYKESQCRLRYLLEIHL
Procedure: as §1, §2, §3, §4

T2 sequence (Q9UGN5 whole entry L443A): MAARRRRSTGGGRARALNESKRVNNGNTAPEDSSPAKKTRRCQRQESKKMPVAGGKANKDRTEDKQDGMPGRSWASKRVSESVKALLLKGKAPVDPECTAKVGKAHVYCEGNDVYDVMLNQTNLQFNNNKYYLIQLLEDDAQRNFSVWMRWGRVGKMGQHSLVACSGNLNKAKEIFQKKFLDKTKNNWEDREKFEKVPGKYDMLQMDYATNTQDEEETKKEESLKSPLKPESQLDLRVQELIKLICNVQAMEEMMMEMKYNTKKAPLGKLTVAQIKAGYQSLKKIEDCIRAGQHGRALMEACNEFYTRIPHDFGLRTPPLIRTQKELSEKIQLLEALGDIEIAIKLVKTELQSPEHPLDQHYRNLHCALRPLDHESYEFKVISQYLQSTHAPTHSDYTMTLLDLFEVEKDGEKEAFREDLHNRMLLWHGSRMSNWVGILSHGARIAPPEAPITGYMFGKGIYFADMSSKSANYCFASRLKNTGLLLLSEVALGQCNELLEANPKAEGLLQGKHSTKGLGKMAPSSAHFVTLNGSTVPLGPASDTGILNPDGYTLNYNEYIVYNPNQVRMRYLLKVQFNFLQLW
T1 sequence (P11103 whole entry L876A): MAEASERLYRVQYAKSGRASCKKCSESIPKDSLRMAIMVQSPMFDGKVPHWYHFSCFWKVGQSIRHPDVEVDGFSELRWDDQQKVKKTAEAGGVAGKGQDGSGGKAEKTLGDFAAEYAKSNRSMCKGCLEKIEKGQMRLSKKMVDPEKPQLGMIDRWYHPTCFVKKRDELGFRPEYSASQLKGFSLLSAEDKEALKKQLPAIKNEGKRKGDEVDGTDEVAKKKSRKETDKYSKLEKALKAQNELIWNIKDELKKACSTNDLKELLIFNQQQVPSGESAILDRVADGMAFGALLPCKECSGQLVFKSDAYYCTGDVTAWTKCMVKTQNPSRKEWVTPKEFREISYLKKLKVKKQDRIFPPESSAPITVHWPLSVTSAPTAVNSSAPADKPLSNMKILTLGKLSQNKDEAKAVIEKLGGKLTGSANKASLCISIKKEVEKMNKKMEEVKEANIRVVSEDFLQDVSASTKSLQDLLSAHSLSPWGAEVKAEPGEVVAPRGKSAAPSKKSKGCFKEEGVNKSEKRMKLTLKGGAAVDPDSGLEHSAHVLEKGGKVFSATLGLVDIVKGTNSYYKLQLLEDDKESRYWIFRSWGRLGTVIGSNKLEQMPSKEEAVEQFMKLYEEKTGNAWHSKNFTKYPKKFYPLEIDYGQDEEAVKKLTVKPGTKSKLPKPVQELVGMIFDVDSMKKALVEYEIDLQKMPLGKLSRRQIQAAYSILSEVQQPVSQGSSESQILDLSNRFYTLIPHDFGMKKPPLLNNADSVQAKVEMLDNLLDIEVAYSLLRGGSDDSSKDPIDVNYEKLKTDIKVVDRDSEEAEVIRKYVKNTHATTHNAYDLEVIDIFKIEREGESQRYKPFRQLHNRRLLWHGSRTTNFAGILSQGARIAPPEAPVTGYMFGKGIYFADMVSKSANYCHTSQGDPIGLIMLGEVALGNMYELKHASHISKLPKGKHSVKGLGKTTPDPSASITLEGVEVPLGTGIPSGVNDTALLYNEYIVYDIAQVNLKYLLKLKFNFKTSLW

## C#CCCSc1nc2c(N)ncnc2n1[C@@H]1O[C@H](COP(=O)(O)OP(=O)(O)OC[C@H]2O[C@@H]([n+]3cccc(C(N)=O)c3)C(O)C2O)[C@H](O)C1O (stereo partly drawn) [8-Bu(3-yne)T-NAD^+]
[1]
  catalytic activity of asPARP-1 with the NAD analog: catalytically active
[2]
  catalytic activity of asPARP-2 with the NAD analog: catalytically active; also recorded: supports activity
[3]
  catalytic activity of asPARP-3 with the NAD analog: catalytically active; also recorded: supports activity
